Series [1] concerns stallion sperm cells. Format: cell-based. The protocol: In a second experiment (data set out to the right of Exp 2 in Tables 5-6), semen was collected from one stallion via artificial vagina. The motility of the ejaculate was determined objectively using a Hamilton-Thorn sperm analyzer with a 37° C. stage warmer. The assessed data included percentage of motile sperm cells, progressive motile sperm cells, as well as average path velocity, straight line velocity, and straightness of motile sperm cells in accordance with conventional operating procedures for the instrument. […]
Following dilution of each semen sample with E-Z Mixin CST and the corresponding adjuvant, the treated semen samples were cooled by reducing the temperature at a controlled rate to about 4° C. Motility was evaluated subjectively via light microscope immediately at 24, 38, and 72 h after being held at about 4° C. […]

The subject of series [2] is stallion sperm cells. Type of series: cell-based. The protocol:
In a first experiment (data set out to the right of Exp 1 in Tables 1-6), semen was collected from two stallions via artificial vagina. The motility of each ejaculate was determined subjectively via light microscope and the semen was diluted to a final concentration of about 5×10^8 motile sperm cells/ml with E-Z freezin LE (Animal Reproduction Systems, Chino, Calif.) and combined to one each of thirteen 0.25 mL semen samples was an amount of a corresponding one of thirteen adjuvants: (1) no addition-control (“untreated control semen sample); 2) about 5% cyclodextrin; 3) about 2.5% cyclodextrin; 4) about 5% pulp oil in cyclodextrin; 5) about 2.5% pulp oil in cyclodextrin; 6) about 5% seed oil in cyclodextrin; 7) about 2.5% seed oil in cyclodextrin; 8) emulsion of about 5% seed oil, 9) emulsion of about 2.5% seed oil, 10) emulsion of about 5% pulp oil, 11) emulsion of about 2.5% pulp oil, 12) about 5% juice, and 13) about 2.5% juice. Throughout this description the amount of extract is expressed as a percentage volume to volume (v/v) unless otherwise indicated.
Following dilution of each semen sample with E-Z freezin LE and combining the diluted semen with the corresponding adjuvant (“treated semen samples”), the treated semen samples were cooled by reducing the temperature at a controlled rate to about 5° C. […]
This is another data set of the same source.

Like-named read-outs stand apart in the source and are kept apart here.

Turning to cyclodextrin, the “effect on sperm cells (spermicidal)” value in series [1] and in series [2] was “spermicidal” in each case.
